Data set [1] is described as follows: Binding to FBS. It is filed as in vitro ADME.
The subject of data set [2] is WM983-B melanoma cells. Put plainly: LDH cytotoxicity analysis. The conditions noted are these: 2, 5, 10 or 15 μM for 96 hr, replenishment at 48 hr.
Protocol: Replicates of WM983-B as well as WM852 melanoma cells were plated at 3×10^5 cells per well in 35 mm tissue culture plates. Twenty-four hours later, the cells were rinsed three times with serum-free medium, followed by addition of increasing doses of anle138b or DMSO only. Forty-eight hours later, the cell culture medium was removed, followed by addition of equivalent doses of anle138b or DMSO only in serum-free medium. Culture medium, collected 48 hr later, was centrifuged to pellet and remove cellular debris. Using a PHERAstar FS microplate reader (BMG LABTECH GmbH, Ortenberg, Germany) and spectrophotometric absorbance measurement, the release of LDH enzyme activity into the tissue culture medium was determined with an LDH cytotoxicity assay kit (Roche Diagnostics Deutschland GmbH, Mannheim, Germany). […] Cells from the DMSO controls were trypsinized, counted, and lysed according to the manufacturer's instructions.
Data set [3] relates to high-level α-synuclein expressing cell lines WM983-B. Put plainly: Initial screen of sixteen compounds from the DPP library. The class given is cell-based, human.
For data set [4], the system named is WM983-B melanoma cells. Put plainly: Melanoma cell proliferation analysis (hemocytometer counting). It is filed as cell-based, human. The settings on record: single dose of 10 μM, 24 hr. As for the experimental part:
To compare how rapidly anle138b affected the proliferation of melanoma cells, expressing α-synuclein at a high level, we treated the melanoma cell lines, WM983-A (VGP) and WM983-B (MGP), for 24, 48 or 72 hr with 10 μM of anle138b, with replenishment of the compound (10 μM) at 48 hr.
(§1) 10 or 30 mM stock solutions of anle138b or anle138c were made in DMSO. Since anle138b as well as anle138c bind strongly to FBS, melanoma cells, plated for 24 hr in tissue-culture medium containing 10% FBS, were rinsed three times with serum-free medium prior to addition of anle138b, anle138c, or an equivalent volume of DMSO only in serum-free medium. Forty-eight hours later, the cell culture medium was removed, followed by addition of an equivalent dose of anle138b or anle138c, or DMSO only in serum-free culture medium. […] Proliferation of melanoma cells that had received DMSO only, or were treated with anle138b was determined by counting the cells with a hemocytometer.

In data set [5] the test system is WM983-B human melanoma xenografts. Put plainly: Melanoma xenograft study: H&E and LC3 staining of tumor sections. The class given is in vivo, nude mice. The conditions noted are these: food pellets with compound for seven days; vs control tumor. The text has this:
To determine whether the DPP compound, anle138b, when administered systemically to human MGP melanoma cells grown as subcutaneous tumors in nude mice, would reach the tumors, we performed the following study. A nude mouse, bearing high-level α-synuclein-expressing (MGP) WM983-B human melanoma xenografts on its lower right and on its lower left dorsal side, received, for seven days, food pellets mixed with anle138b. A second nude mouse, also bearing WM983-B tumors on its lower right as well as on its lower left dorsal side, received, for seven days, the same type of food pellets not containing anle138b. After the mice were sacrificed, we performed the following analyses on the post-mortem resected and thereafter, cryopreserved tumors.
4-week-old, female nude mice (CAnN.Cg-Foxn1nu/Crl) (Charles River Laboratories, Research Models and Services, Germany GmbH, Sulzfeld, Germany) were injected subcutaneously on their lower right as well as lower left dorsal side with WM983-B (MGP) human melanoma cells (1×10^7 cells per side). When the tumors had reached a size of 2.3 to 3.0 mm in any direction, the normal food pellet diet of one of the animals was replaced with food pellets mixed with anle138b [2 g of anle138b/kg of food pellets] […]

For data set [6], the system named is SK-MEL-5 melanoma cells. Put plainly: Mitochondrial membrane potential (MitoTracker Red CMXRos). The class given is cell-based, human. The settings on record: single 10 μM dose, as early as 24 hr. How it is done: (§2) Mitochondrial membrane potential. Melanoma cell lines WM983-B, SK-MEL-5 and WM1158 were treated with anle138b or received DMSO only for 24 or 48 hr. Prior to fixation with 3.7% PFA, the cells were incubated with 200 nM MitoTracker Red CMXRos (Thermo Fisher Scientific, Inc.) for 30 min at 37° C. Confocal image stacks were captured with a 63×NA 1.2 Apochromat water immersion lens on a Zeiss LSM 510 Meta confocal microscope in fluorescence and transmission modes.

Data set [7] deals with WM1158 melanoma cells. Described as above. The class given is cell-based, human. The settings on record: 10 μM, only after 48 hr. As for the experimental part: as §2
Data set [8] relates to WM983-B melanoma cells. The data set is described as above. The class given is cell-based, human. The settings on record: single 10 μM dose, as early as 24 hr. As for the experimental part:
as §2

Data set [9] concerns SK-MEL-5 melanoma cells. Put plainly: Cell morphology (phase-contrast). It is filed as cell-based, human. The conditions noted are these: increasing doses, serum-free medium; time- and dose-dependent.
Source text: (§3) To assess the possible impact of anle138b as well as anle138c on the different melanoma cell lines, WM983-A, WM983-B and SK-MEL-5, we treated them with increasing doses of either compound, dissolved in dimethyl sulfoxide (DMSO), and added to serum-free culture medium. […] We also observed that treatment with anle138b caused a more rapid morphological change than anle138c. To determine whether the effect of the two anle compounds was related to the amount of α-synuclein produced by the cells, we compared the proliferation of the (VGP) WM983-A high-level and the (RGP/VGP) WM1158 low-level α-synuclein-producing melanoma cells over a period of 96 hr, with replenishment of each anle compound at 48 hr (FIGS. 8A and B).
as §1
(§4) Cell morphology. Phase-contrast or DIC images of the melanoma cells that had been treated for various times with anle138b or anle138c, or had received DMSO only were captured with a 10×NA 0.6 objective on a Zeiss Axiovert 100 microscope with a Hamamatsu Orca charge-coupled device (CCD) camera. At least four images, at random areas per culture dish, were recorded for each time point.

Data set [10] concerns WM1158 melanoma cells. Put plainly: Cell morphology (phase-contrast). The class given is cell-based, human. The settings on record: 10 μM, up to 96 hr, replenishment at 48 hr.
Source text: as §3, §1, §4

The subject of data set [11] is WM983-B melanoma cells. Put plainly: Cell morphology (phase-contrast). It is filed as cell-based, human. The conditions noted are these: increasing doses, serum-free medium; time- and dose-dependent.
Source text: as §3, §1, §4

Data set [12] concerns WM983-A, WM983-B, and SK-MEL-5 melanoma cell lines. Put plainly: Apoptosis markers in treated melanoma cells. It is filed as cell-based, human. The text has this:
Although the morphological changes in the WM983-A, WM983-B, and SK-MEL-5 melanoma cell lines following addition of anle138b occurred quite rapidly, they were not indicative of the cells undergoing apoptosis. […] Differential interference contrast (DIC) images of the morphology of the anle138b-treated WM983-B, SK-MEL-5, and WM1158 melanoma cells from the same panels are shown in FIG. 9.

“Also recorded” adds a separate entry of the source.

On to `Brc1cccc(-c2cc(-c3ccc4c(c3)OCO4)n[nH]2)c1` [anle138b, 5-(3-Bromophenyl)-3-(3,4-methylenedioxyphenyl)-1H-pyrazole], for which, in data set [1], the “binding to FBS” value was “bind strongly”. The “cell killing (LDH release)” value in data set [2] was “strong killing that reached a maximum at a 10 μM dose”. For the same molecule, the “effect on WM983-B cells in initial screen” value in data set [3] was “significantly affected; also recorded: strongest and most rapid effect”. In data set [4], the proliferation entry is “inhibited the proliferation of both cell lines to a significant extent”. For the same molecule, the “LC3-positive cells in tumor sections” value in data set [5] was “more LC3-positive cells”. For the same molecule, the “morphology of tumor cells (H&E)” value in data set [5] is on record as “arranged in a scattered pattern with focally pronounced disturbances in the tissue's architecture”. Also, the mitochondrial membrane potential result in [6] was “significantly reduced”; in data set [7], “some reduction”; in data set [8], “significantly reduced”. Further, the morphological changes result in data set [9] and in data set [11] was “major morphological changes” in each case. The morphology entry in data set [10] is recorded as “did not show a significantly altered morphology”. The “cleaved caspase 3 (apoptosis)” value in data set [12] is on record as “nor were they positive for cleaved caspase 3”.

The record behind these values is patent US11180518B2, “Phenyl-heterocycle-phenyl derivatives for use in the treatment or prevention of melanoma” (MAX-PLANCK-GESELLSCHAFT ZUR FÖRDERUNG DER WISSENSCHAFTEN …, priority 2017, dated 2021).
